According to patent US20120016009A1, “Optimized Methods For Delivery Of DSRNA Targeting The PCSK9 Gene” (priority 2008, published 2012):
In the oligonucleotide strings, read from the 5' end, every base follows the letter of its sugar. An asterisk marks phosphorothioate; unmarked linkages are phosphodiester. Other units and linkages are bracketed, terminal groups are in braces. A string of capitals states the bases alone. e = 2'-O-(2-methoxyethyl) (MOE); d = 2'-deoxy (DNA); m = 2'-O-methyl; r = 2'-OH (RNA); {P} = phosphate; f = 2'-fluoro

These substances were tested on PCSK9 mRNA (assay: PCSK9 silencing in primary cynomolgus monkey hepatocytes (dilution series from 30 nM, PCSK9/GAPDH mRNA)). Settings: primary monkey hepatocytes.
Format: cell-based
Method: Primary cynomolgus monkey hepatocytes (cryopreserved) were obtained from In vitro Technologies, Inc. (Baltimore, Md., USA, cat No M00305) and cultured in InVitroGRO CP Medium (cat No Z99029) at 37° C. in an atmosphere with 5% CO2 in a humidified incubator.
For transfection with siRNA, primary cynomolgus monkey cells were seeded on Collagen coated plates (Fisher Scientific, cat. No. 08-774-5) at a density of 3.5×10^4 cells/well in 96-well plates and transfected directly. Transfection of siRNA (eight 2-fold dilution series starting from 30 nM) in duplicates was carried out with lipofectamine 2000 (Invitrogen GmbH, Karlsruhe, Germany, cat. No. 11668-019) as described by the manufacturer.
16 hours after transfection medium was changed to fresh InVitroGRO CP Medium with Torpedo Antibiotic Mix (In vitro Technologies, Inc, cat. No Z99000) added.
24 hours after medium change primary cynomolgus monkey cells were lysed and PCSK9 mRNA levels were quantified with the Quantigene Explore Kit (Genosprectra, Dumbarton Circle Fremont, USA, cat. No. QG-000-02) according to the protocol. PCSK9 mRNA levels were normalized to GAPDH mRNA. Normalized PCSK9/GAPDH ratios were then compared to PCSK9/GAPDH ratio of lipofectamine 2000 only control.

“AD-10794: modified dsRNA, SEQ ID NO:1525/1526; more modified version of AD-9318 (chain 1 mUmCrAmUrArGrGmCmCmUrGrGrArGmUmUmUrAmUdT*dT; chain 2 rAmUrArArArCrUrCmCrArGrGrCrCmUrArUrGrAdT*dT)” was tested, and the “activity in vitro in primary monkey hepatocytes” value (from here on “activity in vitro”) was “active in vitro”.
In the case of “AD-10795: modified dsRNA, SEQ ID NO:1527/1528; more modified version of AD-9318 (chain 1 mUmCrAmUrArGrGmCmCmUrGrGrArGmUmUmUrAmUdT*dT; chain 2 rAmUrArArArCrUmCmCrArGrGmCrCmUrAmUrGrAdT*dT)”, the “activity in vitro” value was “active in vitro”.
For “AD-10797: modified dsRNA, SEQ ID NO:1529/1530; more modified version of AD-9318 (chain 1 mUmCrAmUrArGrGmCmCmUrGrGrArGmUmUmUrAmUdT*dT; chain 2 rArUrArArArCrUrCrCrArGrGrCrCrUrArUrGrAdT*dT)”, the “activity in vitro” value was “active in vitro”.

What follows are substances tested on PCSK9 mRNA (assay: In vitro screening of modified dsRNAs targeted to PCSK9 (Table 2b; cell type not given)). Settings: 30 nM siRNA.
Format: cell-based
How it was run: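 siRNA at 30 nM (single-dose screen) was transfected with lipofectamine 2000 into cells seeded at 2.0×10^4/well. After 24 h, cells were lysed and PCSK9 mRNA measured by Quantigene, normalized to GAPDH (n=8). Values are % remaining PCSK9 mRNA relative to cells given an unrelated control siRNA.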

Going from “AD-12377: modified dsRNA, SEQ ID NO:1449/1450 (chain 1 rGfCfCfUrGrGrArGfUfUfUrAfUfUfCrGrGrArAdT*dT; chain 2 mUrUmCrCrGrArAmUrArArArCrUmCmCrArGrGrCdT*dT)” to “AD-12378: modified dsRNA, SEQ ID NO:1451/1452 (chain 1 rGfCfCfUrGrGrArGfUfUfUrAfUfUfCrGrGrArAdT*dT; chain 2 rUrUrCrCrGmAmArUrAmAmArCrUrCrCrAmGmGmC*mC*mU)”, the “Remaining mRNA in % of controls at siRNA conc. of 30 nM” value (from here on “Remaining mRNA in % of controls”) falls from 88% to 6%.

First: AD-12379: modified dsRNA, SEQ ID NO:1453/1454 (chain 1 rGfCfCfUrGrGrArGfUfUfUrAfUfUfCrGrGrArAdT*dT; chain 2 rUrUrCrCrGrArArUrArArArCrUrCrCrArGrGrC*mC*mU)
Second: AD-12380: modified dsRNA, SEQ ID NO:1455/1456 (chain 1 rGfCfCfUrGrGrArGfUfUfUrAfUfUfCrGrGrArAdT*dT; chain 2 {P}-mUfUmCfCmGfAmAfUmAfAmAfCmUfCmCfAmGfGmC*fC*mU)
The “Remaining mRNA in % of controls” value of the first is lower: 6% for the first, 8% for the second.

Going from “AD-12381: modified dsRNA, SEQ ID NO:1457/1458 (chain 1 rGfCfCfUrGrGrArGfUfUfUrAfUfUfCrGrGrArAdT*dT; chain 2 {P}-mUfUmCfCmGfAmAfUmAfAmAfCmUfCmCfAmGfGmCdT*dT)” to “AD-12382: modified dsRNA, SEQ ID NO:1459/1460 (chain 1 rGfCfCfUrGrGrArGfUfUfUrAfUfUfCrGrGrArAdT*dT; chain 2 {P}-fUfUfCfCrGrArAfUrArArAfCfUfCfCrArGrGfCdT*dT)”, the “Remaining mRNA in % of controls” value falls from 10% to 7%.

Compared with “AD-12383: modified dsRNA, SEQ ID NO:1461/1462 (chain 1 rGrCrCrUrGrGrArGrUrUrUrArUrUrCrGrGrArAdT*dT; chain 2 {P}-fUfUfCfCrGrArAfUrArArAfCfUfCfCrArGrGfCdT*dT)”, “AD-12384: modified dsRNA, SEQ ID NO:1463/1464 (chain 1 rGmCmCmUrGrGrArGmUmUmUrAmUmUmCrGrGrArAdT*dT; chain 2 {P}-fUfUfCfCrGrArAfUrArArAfCfUfCfCrArGrGfCdT*dT)” is higher in “Remaining mRNA in % of controls” value: 7% for the first, 8% for the second.

First: AD-12385: modified dsRNA, SEQ ID NO:1465/1466 (chain 1 GCCUGGNAGUUUAUUCGGAATT; chain 2 {P}-fUfUfCfCrGrArAfUrArArAfCfUfCfCrArGrGfCdT*dT; chain 1: chemistry not given here; further chemistry not fully specified)
Second: AD-12386: modified dsRNA, SEQ ID NO:1467/1468 (chain 1 fGmCfCmUfGmGfAmGfUmUfUmAfUmUfCmGfGmAfA; chain 2 {P}-fUfUfCfCrGrArAfUrArArAfCfUfCfCrArGrGfCdT*dT)
The “Remaining mRNA in % of controls” value of the first is lower: 8% for the first, 11% for the second.

Compared with “AD-12387: modified dsRNA, SEQ ID NO:1469/1470 (chain 1 rGfCfCfUrGrGrArGrGfUfUfUrAfUfUfCrGrGrArA; chain 2 fUfUfCfCrGrArAfUrArArAfCfUfCfCrArGrGfC*fC*fU)”, “AD-12388: modified dsRNA, SEQ ID NO:1471/1472 (chain 1 rGfCfCfUrGrGrArGrGfUfUfUrAfUfUfCrGrGrArA; chain 2 {P}-mUfUmCfCmGfAmAfUmAfAmAfCmUfCmCfAmGfGmC)” is higher in “Remaining mRNA in % of controls” value: 13% for the first, 19% for the second.

Going from “AD-12389: modified dsRNA, SEQ ID NO:1473/1474 (chain 1 rGfCfCfUrGrGrArGrGfUfUfUrAfUfUfCrGrGrArA; chain 2 {P}-mUfUmCfCmGfAmAfUmAfAmAfCmUfCmCfAmGfGmC*fC*mU)” to “AD-12390: modified dsRNA, SEQ ID NO:1475/1476 (chain 1 rGfCfCfUrGrGrArGrGfUfUfUrAfUfUfCrGrGrArA; chain 2 rUrUrCrCrGrArArUrArArArCrUrCrCrArGrGrC*mC*mU)”, the “Remaining mRNA in % of controls” value rises from 16% to 17%.

First: AD-12391: modified dsRNA, SEQ ID NO:1477/1478 (chain 1 rGfCfCfUrGrGrArGrGfUfUfUrAfUfUfCrGrGrArA; chain 2 rUrUrCrCrGmAmArUrAmAmArCrUrCrCrAmGmGmC)
Second: AD-12392: modified dsRNA, SEQ ID NO:1479/1480 (chain 1 rGfCfCfUrGrGrArGrGfUfUfUrAfUfUfCrGrGrArA; chain 2 rUrUrCrCrGrArArUrArArArCrUrCrCrArGrGrCdT*dT)
The “Remaining mRNA in % of controls” value of the first is lower: 21% for the first, 28% for the second.

First: AD-12393: modified dsRNA, SEQ ID NO:1481/1482 (chain 1 rGfCfCfUrGrGrArGrGfUfUfUrAfUfUfCrGrGrArA; chain 2 rUrUrCrCrGrArAmUrArArArCrUrCmCrArGrGrCdT*dT)
Second: AD-12394: modified dsRNA, SEQ ID NO:1483/1484 (chain 1 rGfCfCfUrGrGrArGrGfUfUfUrAfUfUfCrGrGrArA; chain 2 mUrUmCrCrGrArAmUrArArArCrUmCmCrArGrGrCdT*dT)
The “Remaining mRNA in % of controls” value of the first is lower: 17% for the first, 75% for the second.

Compared with “AD-12395: modified dsRNA, SEQ ID NO:1485/1486 (chain 1 GCCUGGAGUUUAUUCGGAATT; chain 2 {P}-fUfUfCfCrGrArAfUrArArAfCfUfCfCrArGrGfC*fC*fU; chain 1: sugars from the 5' end rerererererererererdd, linkages o19 s1 (s phosphorothioate, o phosphodiester), methylation of C not given here)”, “AD-12396: modified dsRNA, SEQ ID NO:1487/1488 (chain 1 GCCUGGAGUUUAUUCGGAA; chain 2 UUCCGAAUAAACUCCAGGCCU; chemical modifications, chemistry not fully specified)” is higher in “Remaining mRNA in % of controls” value: 55% for the first, 59% for the second.

First: AD-12397: modified dsRNA, SEQ ID NO:1489/1490 (chain 1 fGmCfCmUfGmGfAmGfUmUfUmAfUmUfCmGfGmAfA; chain 2 {P}-fUfUfCfCrGrArAfUrArArAfCfUfCfCrArGrGfC*fC*fU)
Second: AD-12398: modified dsRNA, SEQ ID NO:1491/1492 (chain 1 fGmCfCmUfGmGfAmGfUmUfUmAfUmUfCmGfGmAfAdT*dT; chain 2 {P}-fUfUfCfCrGrArAfUrArArAfCfUfCfCrArGrGfC*fC*fU)
The “Remaining mRNA in % of controls” value of the first is higher: 20% for the first, 11% for the second.

Compared with “AD-12399: modified dsRNA, SEQ ID NO:1493/1494 (chain 1 GCCUGGNAGUUUAUUCGGAATT; chain 2 {P}-fUfUfCfCrGrArAfUrArArAfCfUfCfCrArGrGfC*fC*fU; chain 1: chemistry not given here; further chemistry not fully specified)”, “AD-12400: modified dsRNA, SEQ ID NO:1495/1496 (chain 1 rGrCrCrUrGrGrArGrUrUrUrArUrUrCrGrGrArAdT*dT; chain 2 {P}-fUfUfCfCrGrArAfUrArArAfCfUfCfCrArGrGfC*fC*fU)” is lower in “Remaining mRNA in % of controls” value: 13% for the first, 12% for the second.

Compared with “AD-12401: modified dsRNA, SEQ ID NO:1497/1498 (chain 1 rGmCmCmUrGrGrArGmUmUmUrAmUmUmCrGrGrArAdT*dT; chain 2 {P}-fUfUfCfCrGrArAfUrArArAfCfUfCfCrArGrGfC*fC*fU)”, “AD-12402: modified dsRNA, SEQ ID NO:1499/1500 (chain 1 rGmCmCmUrGrGrArGmUmUmUrAmUmUmCrGrGrArA; chain 2 {P}-fUfUfCfCrGrArAfUrArArAfCfUfCfCrArGrGfC*fC*fU)” is higher in “Remaining mRNA in % of controls” value: 13% for the first, 14% for the second.

In the case of “AD-12403: modified dsRNA, SEQ ID NO:1501/1502 (chain 1 rGfCfCfUrGrGrArGrGfUfUfUrAfUfUfCrGrGrArA; chain 2 {P}-fUfUfCfCrGrArAfUrArArAfCfUfCfCrArGrGfC*fC*fU)”, the “Remaining mRNA in % of controls” value was 4%.
